Measured values reported in ChEMBL document CHEMBL1201862, “PubChem BioAssay data set” (2004).
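Where inhibition never reached the appropriate level, the endpoint shown equals the highest concentration tested. Otherwise, values were interpolated linearly from a five-concentration, 48-hour dose response in 96-well plates. GI50 = concentration required for 50% inhibition of growth.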 Activity calls are given as the source filed them. Cut-off read from the data, not from the text of the source: active = GI50 up to about 1.1 µM and inactive = higher.

Legend:
Assay in all cases: DTP human tumour cell line panel, 48 h
786-0 = test system: 786-0
A549 = test system: A549
ACHN = test system: ACHN
CAKI-1 = test system: CAKI-1
CCRF-CEM = test system: CCRF-CEM
COLO 205 = test system: COLO 205
DLD-1 = test system: DLD-1
DMS-114 = test system: DMS-114
DMS-273 = test system: DMS-273
EKVX = test system: EKVX
HCC 2998 = test system: HCC 2998
HCT-15 = test system: HCT-15
HL-60 = test system: HL-60
HOP-18 = test system: HOP-18
HOP-62 = test system: HOP-62
HOP-92 = test system: HOP-92
HT-29 = test system: HT-29
K562 = test system: K562
KM-20L2 = test system: KM-20L2
KM12 = test system: KM12
LOX IMVI = test system: LOX IMVI
LXFL 529 = test system: LXFL 529
M14 = test system: M14
MOLT-4 = test system: MOLT-4
Malme-3M = test system: Malme-3M
NCI-H226 = test system: NCI-H226
NCI-H23 = test system: NCI-H23
NCI-H460 = test system: NCI-H460
NCI-H522 = test system: NCI-H522
OVCAR-3 = test system: OVCAR-3
OVCAR-4 = test system: OVCAR-4
OVCAR-5 = test system: OVCAR-5
OVCAR-8 = test system: OVCAR-8
RPMI-8226 = test system: RPMI-8226
RXF 393 = test system: RXF 393
SF-268 = test system: SF-268
SF-295 = test system: SF-295
SK-MEL-28 = test system: SK-MEL-28
SK-MEL-2 = test system: SK-MEL-2
SK-MEL-5 = test system: SK-MEL-5
SK-OV-3 = test system: SK-OV-3
SN12C = test system: SN12C
SNB-19 = test system: SNB-19
SNB-75 = test system: SNB-75
SNB-78 = test system: SNB-78
SW-620 = test system: SW-620
TK-10 = test system: TK-10
U-251 = test system: U-251
UACC-257 = test system: UACC-257
UO-31 = test system: UO-31
HCT-116 = test system: HCT-116
IGROV-1 = test system: IGROV-1
SF-539 = test system: SF-539
UACC-62 = test system: UACC-62

Nc1nc(=O)n([C@@H]2CC[C@H](CO)O2)cc1F
GI50 (786-0): > 100 µM (inactive) | GI50 (A549): > 100 µM (inactive) | GI50 (ACHN): > 100 µM (inactive) | GI50 (CAKI-1): > 100 µM (inactive) | GI50 (CCRF-CEM): > 100 µM (inactive) | GI50 (COLO 205): > 100 µM (inactive) | GI50 (DLD-1): > 100 µM (inactive) | GI50 (DMS-114): > 100 µM (inactive) | GI50 (DMS-273): > 100 µM (inactive) | GI50 (EKVX): > 100 µM (inactive) | GI50 (HCC 2998): 42.8 µM (inactive) | GI50 (HCT-15): > 100 µM | GI50 (HL-60): > 100 µM (inactive) | GI50 (HOP-18): > 100 µM (inactive) | GI50 (HOP-62): > 100 µM (inactive) | GI50 (HOP-92): > 100 µM (inactive) | GI50 (HT-29): > 100 µM (inactive) | GI50 (K562): > 100 µM (inactive) | GI50 (KM-20L2): > 100 µM (inactive) | GI50 (KM12): > 100 µM (inactive) | GI50 (LOX IMVI): > 100 µM (inactive) | GI50 (LXFL 529): > 100 µM (inactive) | GI50 (M14): > 100 µM (inactive) | GI50 (MOLT-4): > 100 µM (inactive) | GI50 (Malme-3M): > 100 µM (inactive) | GI50 (NCI-H226): > 100 µM (inactive) | GI50 (NCI-H23): > 100 µM (inactive) | GI50 (NCI-H460): > 100 µM (inactive) | GI50 (NCI-H522): > 100 µM (inactive) | GI50 (OVCAR-3): > 100 µM (inactive) | GI50 (OVCAR-4): > 100 µM (inactive) | GI50 (OVCAR-5): > 100 µM (inactive) | GI50 (OVCAR-8): > 100 µM (inactive) | GI50 (RPMI-8226): > 100 µM (inactive) | GI50 (RXF 393): > 100 µM (inactive) | GI50 (SF-268): > 100 µM (inactive) | GI50 (SF-295): > 100 µM (inactive) | GI50 (SK-MEL-28): > 100 µM (inactive) | GI50 (SK-MEL-2): > 100 µM (inactive) | GI50 (SK-MEL-5): > 100 µM (inactive) | GI50 (SK-OV-3): > 100 µM (inactive) | GI50 (SN12C): > 100 µM (inactive) | GI50 (SNB-19): > 100 µM (inactive) | GI50 (SNB-75): > 100 µM (inactive) | GI50 (SNB-78): > 100 µM (inactive) | GI50 (SW-620): > 100 µM (inactive) | GI50 (TK-10): > 100 µM (inactive) | GI50 (U-251): > 100 µM (inactive) | GI50 (UACC-257): > 100 µM (inactive) | GI50 (UO-31): > 100 µM (inactive)

CCOc1ccc2[nH]c3c(C)c4cc[n+](C)cc4c(C)c3c2c1
GI50 (786-0): 0.149 µM (active) | GI50 (A549): 1.18 µM (inactive) | GI50 (CCRF-CEM): 1.98 µM (inactive) | GI50 (DLD-1): 0.9 µM (active) | GI50 (EKVX): 2.57 µM (inactive) | GI50 (HCC 2998): 3 µM (inactive) | GI50 (HCT-116): 1.82 µM (inactive) | GI50 (HL-60): 4.67 µM (inactive) | GI50 (HOP-18): 2.62 µM (inactive) | GI50 (HOP-92): 1.98 µM (inactive) | GI50 (HT-29): 3.25 µM (inactive) | GI50 (IGROV-1): 2.18 µM (inactive) | GI50 (K562): 1.58 µM (inactive) | GI50 (KM-20L2): 3.35 µM (inactive) | GI50 (KM12): 1.57 µM (inactive) | GI50 (LXFL 529): 0.22 µM (active) | GI50 (M14): 5.81 µM (inactive) | GI50 (NCI-H226): 0.264 µM (active) | GI50 (NCI-H23): 0.929 µM (active) | GI50 (NCI-H460): 1.94 µM (inactive) | GI50 (NCI-H522): 0.838 µM (active) | GI50 (OVCAR-3): 2.52 µM (inactive) | GI50 (OVCAR-4): 2.54 µM (inactive) | GI50 (RPMI-8226): 11.3 µM (inactive) | GI50 (RXF 393): 6.41 µM (inactive) | GI50 (SF-268): 0.184 µM (active) | GI50 (SF-295): 0.125 µM (active) | GI50 (SF-539): 0.363 µM (active) | GI50 (SK-MEL-28): 2.24 µM (inactive) | GI50 (SK-MEL-2): 1.51 µM (inactive) | GI50 (SK-MEL-5): 1.36 µM (inactive) | GI50 (SK-OV-3): 2.88 µM (inactive) | GI50 (SN12C): 0.14 µM (active) | GI50 (SNB-78): 1.09 µM (active) | GI50 (SW-620): 1.28 µM (inactive) | GI50 (U-251): 0.115 µM (active) | GI50 (UACC-257): 2.97 µM (inactive) | GI50 (UACC-62): 1.84 µM (inactive) | GI50 (UO-31): 16.6 µM (inactive)
